Experimental data: US20170210778A1, “NOVEL COMPOUNDS” (The Provost, Fellows, Foundation Scholars, and the other …, priority 2014, published 2017)

Legend:
murine NOD1 = target: T1, murine NOD1 (Mus musculus, UniProt Q8BHB0); assay: NOD1 functional agonist assay, 293mNOD1-SEAP reporter cells; format: cell-based; conditions: 293mNOD1 cells, OD above 3*O.D of negative control
T1 construct: expressed in transfected cells; host or cells: HEK293
T1 sequence (Q8BHB0 1-953): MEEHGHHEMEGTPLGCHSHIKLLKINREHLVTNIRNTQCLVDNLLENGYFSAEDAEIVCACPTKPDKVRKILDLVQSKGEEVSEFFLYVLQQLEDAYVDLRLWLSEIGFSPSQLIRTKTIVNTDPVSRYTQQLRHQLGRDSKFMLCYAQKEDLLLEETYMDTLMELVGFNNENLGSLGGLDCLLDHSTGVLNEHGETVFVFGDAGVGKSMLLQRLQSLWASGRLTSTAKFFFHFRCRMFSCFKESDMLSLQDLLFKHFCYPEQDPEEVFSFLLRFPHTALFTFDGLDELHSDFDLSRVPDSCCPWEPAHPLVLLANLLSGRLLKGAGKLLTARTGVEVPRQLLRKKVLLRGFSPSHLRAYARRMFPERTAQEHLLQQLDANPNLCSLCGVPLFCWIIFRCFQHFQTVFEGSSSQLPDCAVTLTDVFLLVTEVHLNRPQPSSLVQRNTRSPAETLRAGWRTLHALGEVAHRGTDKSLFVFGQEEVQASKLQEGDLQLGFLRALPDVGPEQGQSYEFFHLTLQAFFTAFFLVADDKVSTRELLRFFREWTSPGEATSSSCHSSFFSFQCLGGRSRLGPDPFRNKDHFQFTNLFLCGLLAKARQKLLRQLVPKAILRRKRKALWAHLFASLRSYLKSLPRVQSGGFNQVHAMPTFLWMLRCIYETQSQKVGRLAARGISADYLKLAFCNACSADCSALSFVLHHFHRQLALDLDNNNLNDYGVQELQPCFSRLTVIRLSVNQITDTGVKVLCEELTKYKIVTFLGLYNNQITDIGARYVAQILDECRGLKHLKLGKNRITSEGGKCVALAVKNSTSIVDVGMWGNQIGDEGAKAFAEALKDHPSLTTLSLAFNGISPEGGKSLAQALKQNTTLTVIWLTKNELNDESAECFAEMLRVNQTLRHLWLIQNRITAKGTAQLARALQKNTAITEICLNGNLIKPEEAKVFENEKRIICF
Text: (§1) HEK293 cells were stably transfected with plasmid for the overexpression of the NOD1 genes and a reporter plasmid expressing a secreted embryonic alkaline phosphatase (SEAP) gene under the control of a promoter inducible by the transcription factors NF-κB and AP-1. These cells are referred herein as 293hNOD1-SEAP (for cells overexpressing the human NOD1 gene) and 293mNOD1-SEAP (for cells overexpressing the murine NOD1 gene). Upon NOD1 stimulation, these cells induce the activation of NF-κB and AP-1 and subsequently the secretion of SEAP. The reporter protein is easily detectable and measurable when using QUANTI-Blue™ (InvivoGen, San Diego, Calif.), a medium that turns purple/blue in the presence of SEAP.
(§2) The biological activity of the compounds of the invention tested using 293hNOD1 and 293mNOD1 cells. SEAP expression was measured using the commercially available SEAP detection kit (HEK-Blue™ Detection, InvivoGen). The SEAP activity in cells was quantified using the microplate reader (FLUOStar OPTIMA, BMG laboratories), the absorbance values were read using filter with excitation at 620 nm and emission at 655 nm. The results provided in Table 2 were expressed as the concentration were a significant mean optical density (OD) can be observed (above 3*O.D of negative control). As a positive control, the NOD1 pathway was stimulated with commercially available iE-DAP (InvivoGen) and C12-iE-DAP (an acylated derivative of DAP; InvivoGen). As a negative control endotoxin-free water was used. Additionally, 293 cells expressing the SEAP gene but not the NOD1 gene were used as a control.

human NOD1 = target: T2, human NOD1 (Homo sapiens, UniProt Q9Y239); assay: NOD1 functional agonist assay, 293hNOD1-SEAP reporter cells; format: cell-based; conditions: 293hNOD1 cells, OD above 3*O.D of negative control
T2 construct: expressed in transfected cells; host or cells: HEK293
T2 sequence (Q9Y239 1-953): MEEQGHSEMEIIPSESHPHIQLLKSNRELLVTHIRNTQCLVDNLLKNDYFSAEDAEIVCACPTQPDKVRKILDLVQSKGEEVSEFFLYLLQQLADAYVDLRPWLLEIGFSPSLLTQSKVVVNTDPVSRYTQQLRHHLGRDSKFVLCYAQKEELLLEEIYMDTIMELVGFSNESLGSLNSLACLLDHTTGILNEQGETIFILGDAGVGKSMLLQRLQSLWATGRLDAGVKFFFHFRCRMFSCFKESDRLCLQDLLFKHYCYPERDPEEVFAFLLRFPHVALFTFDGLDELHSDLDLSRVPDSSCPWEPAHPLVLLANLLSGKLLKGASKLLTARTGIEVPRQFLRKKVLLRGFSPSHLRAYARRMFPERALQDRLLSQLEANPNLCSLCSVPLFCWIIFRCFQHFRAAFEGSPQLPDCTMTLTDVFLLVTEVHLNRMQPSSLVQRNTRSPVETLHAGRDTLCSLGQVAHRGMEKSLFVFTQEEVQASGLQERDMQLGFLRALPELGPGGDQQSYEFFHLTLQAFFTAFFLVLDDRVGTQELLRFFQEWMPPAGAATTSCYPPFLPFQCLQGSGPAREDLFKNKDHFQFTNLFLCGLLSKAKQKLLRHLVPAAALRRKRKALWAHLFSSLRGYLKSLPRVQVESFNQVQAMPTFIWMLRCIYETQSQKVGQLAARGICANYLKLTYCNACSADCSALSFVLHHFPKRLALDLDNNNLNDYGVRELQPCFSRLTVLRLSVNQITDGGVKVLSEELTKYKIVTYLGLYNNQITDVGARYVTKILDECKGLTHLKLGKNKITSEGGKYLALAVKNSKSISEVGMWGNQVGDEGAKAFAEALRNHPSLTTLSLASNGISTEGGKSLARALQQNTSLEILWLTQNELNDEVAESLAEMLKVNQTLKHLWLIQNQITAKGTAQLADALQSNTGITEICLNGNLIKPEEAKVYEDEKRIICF
Text: as §1, §2

hNOD2 = target: T3, hNOD2 (Homo sapiens, UniProt Q9HC29); assay: NOD2 functional agonist assay, 293hNOD2-SEAP reporter cells; format: cell-based; conditions: 293hNOD2 cells, OD above 3*O.D of negative control
T3 construct: expressed in transfected cells; host or cells: HEK293
T3 sequence (Q9HC29 whole entry): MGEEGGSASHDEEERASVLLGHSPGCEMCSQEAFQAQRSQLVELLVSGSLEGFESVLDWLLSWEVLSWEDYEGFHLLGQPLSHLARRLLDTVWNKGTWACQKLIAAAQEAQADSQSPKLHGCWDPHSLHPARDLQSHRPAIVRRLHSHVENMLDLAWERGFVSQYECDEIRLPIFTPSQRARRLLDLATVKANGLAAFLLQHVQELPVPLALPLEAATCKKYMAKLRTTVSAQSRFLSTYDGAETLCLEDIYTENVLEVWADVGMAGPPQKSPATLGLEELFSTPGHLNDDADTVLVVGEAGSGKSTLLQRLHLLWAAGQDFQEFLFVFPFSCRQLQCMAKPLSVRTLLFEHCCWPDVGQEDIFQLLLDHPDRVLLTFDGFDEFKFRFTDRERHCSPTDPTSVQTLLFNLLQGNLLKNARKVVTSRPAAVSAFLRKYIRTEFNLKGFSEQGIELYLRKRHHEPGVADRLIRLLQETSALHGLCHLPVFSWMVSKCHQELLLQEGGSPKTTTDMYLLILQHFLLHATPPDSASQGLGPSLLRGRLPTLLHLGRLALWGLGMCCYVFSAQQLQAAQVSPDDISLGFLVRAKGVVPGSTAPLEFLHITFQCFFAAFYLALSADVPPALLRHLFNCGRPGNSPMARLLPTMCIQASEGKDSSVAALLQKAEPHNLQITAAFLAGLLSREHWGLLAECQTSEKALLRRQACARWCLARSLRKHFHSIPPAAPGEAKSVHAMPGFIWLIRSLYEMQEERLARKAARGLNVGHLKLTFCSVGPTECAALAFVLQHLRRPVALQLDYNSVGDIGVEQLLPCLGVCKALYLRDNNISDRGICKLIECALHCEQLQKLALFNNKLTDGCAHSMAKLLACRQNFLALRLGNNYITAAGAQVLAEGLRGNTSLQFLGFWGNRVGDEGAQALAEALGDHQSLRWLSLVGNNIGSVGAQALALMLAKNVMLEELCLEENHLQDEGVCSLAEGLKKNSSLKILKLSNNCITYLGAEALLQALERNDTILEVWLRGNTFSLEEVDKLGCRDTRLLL
Text: as §1, with “NOD2” for “NOD1”, “293hNOD2-SEAP.” for “293hNOD1-SEAP (for cells overexpressing the human NOD1 gene) and 293mNOD1-SEAP (for cells overexpressing the murine NOD1 gene).”
The biological activity of the compounds using 293hNOD2 cells. SEAP expression was measured using the commercially available SEAP detection kit (HEK-Blue™ Detection, InvivoGen). The SEAP activity in cells was quantified using the microplate reader (FLUOStar OPTIMA, BMG laboratories), the absorbance values were read using filter with excitation at 620 nm and emission at 655 nm. The results provided in Table 3 were expressed as the concentration were a significant mean optical density (OD) can be observed (above 3*O.D of negative control) as the mean optical density. As a positive control, the NOD2 pathway was stimulated with commercially available MDP (InvivoGen) and M-triDAP (InvivoGen). As a negative control endotoxin-free water was used. Additionally, 293 cells expressing the SEAP gene but not the NOD2 gene were used as a control.

[1] = tested on: LPM in the peritoneal cavity; assay: Numbers of LPM in the peritoneal cavity after i.p. injection; format: in vivo; conditions: injected i.p. into mice; FIG. 1B
PEC = assay: IL-10 production by PEC in vitro; format: cell-based; conditions: 24 h stimulation, FIG. 1A
EAE in C57BL/6 mice = assay: Experimental Autoimmune Encephalomyelitis (EAE) model; format: in vivo
Text: EAE is induced in C57BL/6 mice by immunization with an emulsion of MOG35-55 or MOG1-125 in complete Freund's adjuvant (CFA), followed by administration of pertussis toxin (PT) in PBS, first on the day of immunization and then again the following day.

mNod1: concentration where a significant mean optical density (OD) can be observed (murine NOD1)	hNod1: concentration where a significant mean optical density (OD) can be observed (human NOD1)	Structure (SMILES)	hNod2: concentration where a significant mean optical density (OD) can be observed (hNOD2)	other results
1 µg/mL	1 µg/mL	CC(=O)N[C@H]1[C@@H](OCc2ccccc2)O[C@H](CO)[C@@H](O)[C@@H]1O[C@H](C)C(=O)N[C@@H](C)C(=O)N[C@H](CCC(=O)N[C@H](CSC[C@H](N)C(=O)O)C(=O)O)C(=O)O [Example 31, N^2-(((R)-2-(((2S,3R,4R,5S,6R)-3-acetamido-2-(benzyloxy)-5-hydroxy-6-(hydroxymethyl)tetrahydro-2H-pyran-4-yl)oxy)propanoyl)-L-alanyl)-N^5-((S)-2-(((R)-2-amino-2-carboxyethyl)thio)-1-carboxyethyl)-D-glutamine]	0.1 µg/mL	–
0.01 µg/mL	0.01 µg/mL	CCCCCCC(=O)N[C@H](CCC(=O)N[C@H](CSC[C@H](N)C(=O)O)C(=O)N[C@H](C)C(=O)O)C(=O)O [Example 15, N^5-((S)-3-(((R)-2-amino-2-carboxyethyl)thio)-1-(((R)-1-carboxyethyl)amino)-1-oxopropan-2-yl)-N^2-heptanoyl-D-glutamine]	–	numbers of LPM in the peritoneal cavity [1]: significantly increased; production of IL-10 by PEC (PEC): induced the production of significant concentrations of IL-10; EAE attenuation in WT mice (EAE in C57BL/6 mice; WT mice, FIG. 2): significantly attenuated; onset of EAE (EAE in C57BL/6 mice; treated IL-10−/− mice versus untreated WT or IL-10−/− mice, FIG. 2): slightly later onset; mice that developed EAE (EAE in C57BL/6 mice; treated IL-10−/− mice, FIG. 2): 100%; mice with any symptoms of EAE (EAE in C57BL/6 mice; treated WT mice, FIG. 2): one of 6; EAE-associated weight loss (EAE in C57BL/6 mice; treated mice, FIG. 1C): prevented associated weight loss; clinical course of EAE (EAE in C57BL/6 mice; treated mice, FIG. 1C): significantly attenuated
10 µg/mL	10 µg/mL	N[C@@H](CSC[C@@H](NC(=O)CC[C@@H](NC(=O)[C@@H](N)Cc1ccccc1)C(=O)O)C(=O)O)C(=O)O [Example 9, N^2-(L-phenylalanyl)-N^5-((S)-2-(((R)-2-amino-2-carboxyethyl)thio)-1-carboxyethyl)-D-glutamine]	–	–
10 µg/mL	1 µg/mL	N[C@H](CCC(=O)N[C@H](CSC[C@H](N)C(=O)O)C(=O)O)C(=O)O [Example 1, N^5-((S)-2-(((R)-2-amino-2-carboxyethyl)thio)-1-carboxyethyl)-D-glutamine]	–	–

Structure (SMILES)	mNod1: concentration where a significant mean optical density (OD) can be observed (murine NOD1)	hNod1: concentration where a significant mean optical density (OD) can be observed (human NOD1)	hNod2: concentration where a significant mean optical density (OD) can be observed (hNOD2)	other results
CC(=O)N[C@H]1[C@@H](OCc2ccccc2)O[C@H](CO)[C@@H](O)[C@@H]1O[C@H](C)C(=O)N[C@@H](C)C(=O)N[C@H](CCC(=O)N[C@H](CSC[C@H](N)C(=O)O)C(=O)NCC(=O)O)C(=O)O [Example 32, N^2-(((R)-2-(((2S,3R,4R,5S,6R)-3-acetamido-2-(benzyloxy)-5-hydroxy-6-(hydroxymethyl)tetrahydro-2H-pyran-4-yl)oxy)propanoyl)-L-alanyl)-N^5-((S)-3-(((R)-2-amino-2-carboxyethyl)thio)-1-((carboxymethyl)amino)-1-oxopropan-2-yl)-D-glutamine]	0.1 µg/mL	0.1 µg/mL	0.1 µg/mL	–
CC(=O)N[C@H]1[C@@H](OCc2ccccc2)O[C@H](CO)[C@@H](O)[C@@H]1O[C@H](C)C(=O)N[C@@H](C)C(=O)N[C@H](CCC(=O)N[C@H](CSC[C@H](N)C(=O)O)C(=O)N[C@H](C)C(=O)O)C(=O)O [Example 33, N2-(((R)-2-(((2S,3R,4R,5S,6R)-3-acetamido-2-(benzyloxy)-5-hydroxy-6-(hydroxymethyl)tetrahydro-2H-pyran-4-yl)oxy)propanoyl)-L-alanyl)-N^5-((S)-3-(((R)-2-amino-2-carboxyethyl)thio)-1-(((R)-1-carboxyethyl)amino)-1-oxopropan-2-yl)-D-glutamine]	1 µg/mL	1 µg/mL	1 µg/mL	–
